Experiments:
Type in all cases: cell-based
[1] = target: T1, GABA-A receptor; alpha-3/beta-3/gamma-2 (Homo sapiens, UniProt P18507+P28472+P34903); test: Inhibition of [3H]Ro-151788 binding to recombinant human gamma-aminobutyric-acid A receptor alpha-3-beta-3-gamma-2 subtype expressed in L (tk-) cells
T1 sequence (P18507 whole entry): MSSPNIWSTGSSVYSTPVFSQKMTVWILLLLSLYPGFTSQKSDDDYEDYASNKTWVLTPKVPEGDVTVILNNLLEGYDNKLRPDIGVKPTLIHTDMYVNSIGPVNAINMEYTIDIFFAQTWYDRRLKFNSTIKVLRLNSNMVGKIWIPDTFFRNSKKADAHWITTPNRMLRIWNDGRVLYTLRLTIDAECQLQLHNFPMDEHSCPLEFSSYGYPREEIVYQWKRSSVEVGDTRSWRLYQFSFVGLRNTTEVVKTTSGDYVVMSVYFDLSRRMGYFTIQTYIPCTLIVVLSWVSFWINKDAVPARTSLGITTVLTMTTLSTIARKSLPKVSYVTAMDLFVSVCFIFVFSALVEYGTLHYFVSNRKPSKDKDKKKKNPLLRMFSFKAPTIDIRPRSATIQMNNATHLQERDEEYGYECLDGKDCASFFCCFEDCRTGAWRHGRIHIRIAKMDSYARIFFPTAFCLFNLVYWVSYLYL
T1 sequence (P28472 whole entry): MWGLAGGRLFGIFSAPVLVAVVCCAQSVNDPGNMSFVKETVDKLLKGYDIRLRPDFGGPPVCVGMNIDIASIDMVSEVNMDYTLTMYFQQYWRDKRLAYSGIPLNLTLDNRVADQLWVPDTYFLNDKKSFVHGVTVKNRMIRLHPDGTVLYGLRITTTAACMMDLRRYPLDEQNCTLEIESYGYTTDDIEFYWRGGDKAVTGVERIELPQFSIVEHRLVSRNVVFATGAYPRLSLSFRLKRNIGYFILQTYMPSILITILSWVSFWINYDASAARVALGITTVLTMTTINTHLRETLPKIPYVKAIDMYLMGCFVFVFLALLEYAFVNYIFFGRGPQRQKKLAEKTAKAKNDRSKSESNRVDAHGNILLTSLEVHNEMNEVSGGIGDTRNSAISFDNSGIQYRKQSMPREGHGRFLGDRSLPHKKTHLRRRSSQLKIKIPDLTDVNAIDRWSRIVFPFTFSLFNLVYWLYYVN
T1 sequence (P34903 whole entry): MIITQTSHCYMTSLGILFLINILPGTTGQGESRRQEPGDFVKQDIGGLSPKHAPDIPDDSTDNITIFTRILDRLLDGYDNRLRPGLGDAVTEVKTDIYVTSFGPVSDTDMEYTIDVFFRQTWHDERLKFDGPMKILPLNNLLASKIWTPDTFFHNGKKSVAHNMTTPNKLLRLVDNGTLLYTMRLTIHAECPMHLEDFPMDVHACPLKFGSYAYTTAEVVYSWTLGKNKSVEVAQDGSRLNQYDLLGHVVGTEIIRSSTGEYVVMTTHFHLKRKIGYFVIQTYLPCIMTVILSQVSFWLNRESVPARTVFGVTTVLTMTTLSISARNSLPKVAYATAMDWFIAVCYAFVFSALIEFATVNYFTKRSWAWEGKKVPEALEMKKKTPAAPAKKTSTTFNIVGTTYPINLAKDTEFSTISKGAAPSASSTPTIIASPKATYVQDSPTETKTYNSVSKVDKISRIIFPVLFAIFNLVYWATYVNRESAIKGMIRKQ

[2] = target: T2, GABA-A receptor; alpha-2/beta-3/gamma-2 (Homo sapiens, UniProt P18507+P28472+P47869); test: Inhibition of [3H]Ro-151788 binding to recombinant human gamma-aminobutyric acid A receptor alpha-2-beta-3-gamma-2 subtype expressed in L (tk-) cells
T2 sequence (P18507 whole entry): T1 sequence (P18507 whole entry)
T2 sequence (P28472 whole entry): T1 sequence (P28472 whole entry)
T2 sequence (P47869 whole entry): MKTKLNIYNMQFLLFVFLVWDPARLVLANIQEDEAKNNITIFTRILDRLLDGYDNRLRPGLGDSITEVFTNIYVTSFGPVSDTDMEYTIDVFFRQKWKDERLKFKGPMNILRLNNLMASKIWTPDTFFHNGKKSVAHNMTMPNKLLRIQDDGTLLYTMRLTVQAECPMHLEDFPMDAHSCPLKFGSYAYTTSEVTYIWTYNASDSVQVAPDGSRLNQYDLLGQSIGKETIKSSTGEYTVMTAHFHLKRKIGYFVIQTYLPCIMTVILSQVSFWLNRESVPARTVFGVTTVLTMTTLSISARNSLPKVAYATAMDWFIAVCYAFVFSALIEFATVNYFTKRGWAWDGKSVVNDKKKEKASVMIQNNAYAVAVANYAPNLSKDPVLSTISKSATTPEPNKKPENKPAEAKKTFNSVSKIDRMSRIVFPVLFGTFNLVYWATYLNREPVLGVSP

[3] = target: T3, GABA-A receptor; alpha-1/beta-3/gamma-2 (Homo sapiens, UniProt P14867+P18507+P28472); test: Inhibition of [3H]Ro-151788 binding to recombinant human gamma-aminobutyric-acid A receptor alpha-1-beta-3-gamma-2 subtype expressed in L (tk-) cells
T3 sequence (P14867 whole entry): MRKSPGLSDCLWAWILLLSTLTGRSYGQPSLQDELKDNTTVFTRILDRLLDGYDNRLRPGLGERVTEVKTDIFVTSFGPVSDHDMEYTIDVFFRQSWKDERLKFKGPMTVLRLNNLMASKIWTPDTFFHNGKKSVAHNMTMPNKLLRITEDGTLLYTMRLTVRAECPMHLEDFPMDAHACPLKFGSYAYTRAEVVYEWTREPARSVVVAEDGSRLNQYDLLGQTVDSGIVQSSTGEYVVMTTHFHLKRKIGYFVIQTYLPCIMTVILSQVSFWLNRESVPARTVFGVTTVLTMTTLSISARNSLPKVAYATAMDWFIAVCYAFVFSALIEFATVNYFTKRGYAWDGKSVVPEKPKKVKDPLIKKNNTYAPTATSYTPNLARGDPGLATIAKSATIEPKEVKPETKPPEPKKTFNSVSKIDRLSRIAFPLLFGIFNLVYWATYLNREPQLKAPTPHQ
T3 sequence (P18507 whole entry): T1 sequence (P18507 whole entry)
T3 sequence (P28472 whole entry): T1 sequence (P28472 whole entry)

[4] = target: T4, GABA-A receptor; alpha-5/beta-3/gamma-2 (Homo sapiens, UniProt P18507+P28472+P31644); test: Inhibition of [3H]Ro-151788 binding to recombinant human gamma-aminobutyric-acid A receptor alpha-5-beta-3-gamma-2 subtype expressed in L (tk-) cells
T4 sequence (P18507 whole entry): T1 sequence (P18507 whole entry)
T4 sequence (P28472 whole entry): T1 sequence (P28472 whole entry)
T4 sequence (P31644 whole entry): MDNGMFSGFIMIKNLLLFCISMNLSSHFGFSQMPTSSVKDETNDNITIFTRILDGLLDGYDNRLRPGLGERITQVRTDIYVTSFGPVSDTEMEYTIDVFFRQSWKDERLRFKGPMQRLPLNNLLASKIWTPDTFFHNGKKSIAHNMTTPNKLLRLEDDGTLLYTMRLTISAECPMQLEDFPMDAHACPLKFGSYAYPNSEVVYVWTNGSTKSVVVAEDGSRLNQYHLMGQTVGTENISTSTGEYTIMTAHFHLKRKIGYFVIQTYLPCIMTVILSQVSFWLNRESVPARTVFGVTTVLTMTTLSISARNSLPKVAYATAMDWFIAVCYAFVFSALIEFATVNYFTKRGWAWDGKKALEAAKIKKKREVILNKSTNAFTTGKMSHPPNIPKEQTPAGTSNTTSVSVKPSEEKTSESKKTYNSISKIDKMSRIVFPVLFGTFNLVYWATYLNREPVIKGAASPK

Structure (SMILES) | Ki [1] | Ki [2] | Ki [3] | Ki [4]
OCc1cccc(COc2nn3c(-c4ccccc4)nnc3c3c2C2CCC3CC2)c1 | 43 nM | 110 nM | 490 nM | 11 nM
CN1CCCCC1COc1nn2c(-c3ccccc3)nnc2c2c1C1CCC2CC1 (stereo unspecified) | > 1000 nM | > 1000 nM | > 1000 nM | > 1000 nM
Cn1nnnc1COc1nn2c(-c3ccccc3)nnc2c2c1C1CCC2CC1 | 21 nM | 59 nM | 78 nM | 4.4 nM
c1ccc(-c2nnc3c4c(c(OCCc5ccccn5)nn23)C2CCC4CC2)cc1 | 200 nM | 270 nM | 480 nM | 44 nM
Cc1noc(COc2nn3c(-c4ccccc4)nnc3c3c2C2CCC3CC2)n1 | 51 nM | 250 nM | 290 nM | 12 nM
Cc1cccc(COc2nn3c(-c4ccccc4)nnc3c3c2C2CCC3CC2)n1 | 20 nM | 36 nM | 160 nM | 2.6 nM
Oc1cccnc1COc1nn2c(-c3ccccc3)nnc2c2c1C1CCC2CC1 | 180 nM | 470 nM | 270 nM | 34 nM
OCC1CCC(COc2nn3c(-c4ccccc4)nnc3c3c2C2CCC3CC2)CC1 (trans isomer) | 57 nM | 77 nM | 150 nM | 41 nM
c1ccc(-c2nnc3c4c(c(OCc5ccsc5)nn23)C2CCC4CC2)cc1 | > 500 nM | > 500 nM | > 500 nM | > 500 nM
Cc1csc(-c2nnc3c4c(c(OCc5ccccn5)nn23)C2CCC4CC2)n1 | 100 nM | 140 nM | > 1000 nM | 26 nM
Clc1ccc(COc2nn3c(-c4ccccc4)nnc3c3c2C2CCC3CC2)nn1 | 23 nM | 42 nM | 73 nM | 1.3 nM
OCCCOc1nn2c(-c3ccccc3)nnc2c2c1C1CCC2CC1 | 170 nM | 310 nM | 650 nM | 42 nM
CSOc1ccc(COc2nn3c(-c4ccccc4)nnc3c3c2C2CCC3CC2)cc1 | 31 nM | 41 nM | 96 nM | 7.6 nM
Cc1cnc(COc2nn3c(-c4ccccc4)nnc3c3c2C2CCC3CC2)s1 | 24 nM | 28 nM | 100 nM | 2 nM
Fc1ccc(-c2nnc3c4c(c(OCc5ccccn5)nn23)C2CCC4CC2)cc1 |  | 180 nM | 310 nM | 27 nM
c1ccc(COc2nn3c(-c4ccsc4)nnc3c3c2C2CCC3CC2)nc1 | 38 nM | 52 nM | 130 nM | 4.4 nM

Structure (SMILES) | Ki [1] | Ki [2] | Ki [3] | Ki [4]
O=C(COc1nn2c(-c3ccccc3)nnc2c2c1C1CCC2CC1)N1CCCC1 | 50 nM | 160 nM | 230 nM | 9 nM
Cn1nnc(COc2nn3c(-c4ccccc4)nnc3c3c2C2CCC3CC2)n1 | 37 nM | 57 nM | 60 nM | 6.5 nM
Cc1nc(COc2nn3c(-c4ccccc4)nnc3c3c2C2CCC3CC2)no1 | 66 nM | 110 nM | 140 nM | 16 nM
c1ccc(-c2nnc3c4c(c(OCc5ccc6ccccc6n5)nn23)C2CCC4CC2)cc1 | 77 nM | 200 nM | 480 nM | 9.5 nM
c1ccc(-c2nnc3c4c(c(OCc5ncccn5)nn23)C2CCC4CC2)cc1 | 33 nM | 68 nM | 87 nM | 9.2 nM
FC(F)(F)Oc1ccc(COc2nn3c(-c4ccccc4)nnc3c3c2C2CCC3CC2)cc1 | > 500 nM | > 500 nM | > 500 nM | > 500 nM
OCc1ccc(COc2nn3c(-c4ccccc4)nnc3c3c2C2CCC3CC2)cc1 | 44 nM | 76 nM | 520 nM | 11 nM
c1ccc(COc2nn3c(-c4ccccc4)nnc3c3c2C2CCC3CC2)cc1 | > 1000 nM | > 1000 nM | > 1000 nM | 110 nM
Cc1conc1COc1nn2c(-c3ccccc3)nnc2c2c1C1CCC2CC1 | 18 nM | 35 nM | 80 nM | 2.7 nM
c1ccc(COc2nn3c(C4CC4)nnc3c3c2C2CCC3CC2)nc1 | 18 nM | 24 nM | 130 nM | 1.8 nM
COc1ccccc1-c1nnc2c3c(c(OCc4ccccn4)nn12)C1CCC3CC1 | > 1000 nM | > 1000 nM | > 1000 nM | 170 nM
Cc1nnc2ccc(-c3cccc(C(F)(F)F)c3)nn12 [CI-218872] | 850 nM | 720 nM | 66 nM | 460 nM
c1ccc(-c2nnc3c4c(c(OCc5nc6ccccc6s5)nn23)C2CCC4CC2)cc1 | 250 nM | > 1000 nM | > 1000 nM | 23 nM
OCC1CCC(COc2nn3c(-c4ccccc4)nnc3c3c2C2CCC3CC2)CC1 (stereo in doubt) | > 1000 nM | > 1000 nM | > 1000 nM | 88 nM
CN(C(=O)COc1nn2c(-c3ccccc3)nnc2c2c1C1CCC2CC1)c1ccccc1 | 41 nM | 72 nM | 21 nM | 7.4 nM
Cc1ccc(-c2nc3ccc(C)cn3c2CC(=O)N(C)C)cc1 [ZOLPIDEM] | 246 nM | 103 nM |  | > 3330 nM
